Data taken from patent US10106627B2, “Process for the preparation of polymeric biosurfactants” (priority 2014, dated 2018).

Columns and labels:
[1] = DPPH free radical scavenging assay (cell free); format: biochemical; conditions: 35° C., 30 min
Method: The antioxidant activity of Microsan from Microbacterium sp. strain BS-2 and Brevisan from Brevibacillus sp. strain BS-207 in cell free system was measured by its inhibitory activity on the generation of DPPH free radicals, superoxide anions (O^2−), lipid peroxidation and erythrocyte hemolysis. The DPPH free radical scavenging assay was performed using 2,2-diphenyl-1-picrylhydrazyl (DPPH) free radical scavenging method [Ara. N. and Hasan, N. (2009) Res. J. Med. Medical Sci. 4, 107-110]. Different concentrations of Microsan and Brevisan were mixed individually with 150 μl of 160 μM methanolic solution of DPPH and incubated at 35° C. for 30 min in dark. The effective concentration (EC50) was calculated by measuring the absorbance of the samples at 517 nm. The superoxide anion scavenging was measured using phenazine methosulfate-nicotinamide adenine dinucleotide (PMS/NADH) method as previously described [Liu, F., Ooi, V. E. and Chang, S. T. (1997) Life Sci. 60, 763-771]. The lipid peroxidation assay was performed using the previously described method [Zhang, Q., Yu, P., Li, Z., Zhang, H., Xu, Z. and Li, P. (2003) J. Appl. Phycol. 15, 305-310] which is based on measuring the lipid peroxide decomposed product malondialdehyde (MDA). […] Samples were incubated at 37° C. for 30 min and the absorbance was measured at 540 nm. […]

[2] = test system: RAW 264.7 macrophages; test: In vitro MTT assay, proliferation of RAW 264.7 macrophages; format: cell-based, mouse; conditions: 200 μg ml-1, 48 h
Method: The effect of Brevisan, Microsan and M-EPS-Au-NP on the proliferation of RAW 264.7 macrophages (ATCC No. CRL-2278) was measured by in vitro MTT assay using the previously described method [Mosmann, T. (1983) J. Immunol. Methods 65, 55-63], which is based on the cell-mediated reduction of tetrazolium salt to form water insoluble formazan crystals. The MTT assay was performed with different concentrations (1-200 μg ml-1) of Brevisan, Microsan and M-EPS-Au-NP were incubated for 48 h using laminarin as a control.

[3] = Critical micelle concentration; format: physicochemical
Method: The bacterial strains producing biosurfactants were isolated from the petroleum-contaminated soil sample collected from Mupkal, Nizamabad, Andhra Pradesh, India (latitude 18.90° N and longitude 78.36° E). The soil sample was enriched by placing 1.0 g of soil sample in 100 ml of mineral salts medium supplemented with N-hexadecane (1%, v/v) as a sole carbon source for three weeks. The enriched sample was serially diluted and then plated on the mineral salts agar plates overlaid with N-hexadecane which acted as a sole carbon source. The colonies that appeared on the plates upon incubation at 37° C. for 72 h were purified for 2-3 times on nutrient agar plates. The isolated pure microorganisms were cultured in liquid mineral salts medium at 37° C. for 72 h. The cells were separated by centrifugation and the cell-free supernatant was measured for the reduction in surface tension values by Wilhelmy plate method using a Du-Nouy K100MK2 Processor Tensiometer (Krüss, Hamburg, Germany). The concentration series was generated automatically with a computer-controlled Dosimat (Metrohm AG, Switzerland). […] The critical micelle concentration (CMC) was measured by plotting the concentration of surfactant as a function of surface tension, and the CMC was taken as the point where the slope of the curve abruptly changed. […]

[4] = test system: TNF-α in RAW 264.7 cells; test: LPS-induced TNF-α ELISA in RAW 264.7 cells; format: cell-based, mouse; conditions: 50 μg ml^−1; LPS 100 ng ml^−1 24 h; LPS alone 215.79
Method: (§1) The effect of Brevisan, Microsan and M-EPS-Au-NP on the release of proinflammatory cytokines, TNF-α and IL-6, was measured using ELISA kits (Biosource International, Camarillo, Calif., USA). In independent experiments, the RAW-264.7 cells were treated with different concentrations (1, 10, 50 and 100 μg ml^−1) of Brevisan, Microsan and M-EPS-Au-NP and then stimulated with 100 ng ml^−1 of LPS. The supernatants were harvested after 24 h and the concentrations of TNF-α and IL-6 was measured using an ELISA kit according to the manufacturer's instructions.

[5] = Interfacial tension, Du-Nouy ring method; format: physicochemical
Method: (§2) The surface tension of the purified Microsan from Microbacterium sp. strain BS-2 and Brevisan from Brevibacillus sp. strain BS-207 was measured by Wilhelmy plate method using a Du-Nouy K100MK2 Processor Tensiometer (Krüss, Hamburg, Germany) which reduced the surface tension of water from 72 to 31.2 mN m^−1. The interfacial tension value was measured by Du-Nouy ring method and it was determined as 25.7 mN m. The critical micelle concentration (CMC) was measured by plotting the concentration of EPS as a function of surface tension. The CMC is the point where the slope of the curve abruptly changed was determined as 75 mg l^−1. The emulsification index (EI24) was determined by the addition of 4 ml of culture supernatant to 6 ml of various hydrocarbons (N-Hexadecane, tridecane, hexane, toluene and xylene) and oils (mineral oil and soybean oil) and the mixtures were vortexed for 2 min and allowed to stand for 24 h. The emulsification index (EI24) values expressed as the percentage of height of emulsified layer to the height of total liquid column.

[6] = Emulsification index (EI24); format: physicochemical; conditions: 24 h
Method: as §2

[7] = test system: IL-6 in RAW 264.7 cells; test: LPS-induced IL-6 ELISA in RAW 264.7 cells; format: cell-based, mouse; conditions: 50 μg ml^−1; LPS 100 ng ml^−1 24 h; LPS alone 190.9
Method: as §1

[8] = test system: nitric oxide (NO) in RAW 264.7 macrophages; test: LPS-stimulated nitric oxide (Griess reaction) in RAW 264.7 macrophages; format: cell-based, mouse; conditions: 20 μg ml^−1; LPS 100 ng ml^−1 24 h; LPS alone 66.87%
Method: After 24 h, 100 μl of culture supernatant was collected and mixed with 100 μl of Griess reagent in a 96-well plate and incubated for 15 min at room temperature. The optical density was spectroscopically measured at 540 nm using TRIAD multimode reader (Dynex Technologies, Inc., Chantilly, Va.). The experiments were run in triplicates and reported as the percentage of NO produced.

β-D-glucuronyl-(1-2)-D-mannosyl-(1-4)-D-glucose [Microsan]
EC50 DPPH free radical scavenging [1]: 40.78 µg/mL
cell proliferation (MTT) [2]: 89.07%
critical micelle concentration (CMC) [3]: 75 mg/L
TNF-α production after treatment [4]: 98.88 µg/mL
interfacial tension [5]: 25.7 mN m
emulsification index (EI24) ([6]; N-hexadecane): 67%
emulsification index (EI24) ([6]; hexane): 83.7%
emulsification index (EI24) ([6]; mineral oil): 71.9%
emulsification index (EI24) ([6]; soybean oil): 63%
emulsification index (EI24) ([6]; toluene): 74.9%
emulsification index (EI24) ([6]; tridecane): 77%
emulsification index (EI24) ([6]; xylene): 66.89%
IL-6 production after treatment [7]: 90.01 µg/mL
LPS-stimulated NO levels after treatment [8]: 20.05%
